# Test results published in patent US7902186B2, “Substituted 5-phenyl-3,6-dihydro-2-oxo-6H-1,3,4-thiadiazines” (Merck Patent GmbH, priority 2005, dated 2011).
# Target: T1, Met kinase (Homo sapiens, UniProt P08581)
# T1 construct: 6His (N); purchased Upstate 14-526; host or cells: Sf21 insect cells (S. frugiperda), baculovirus
# Test: Met kinase inhibition, flashplate method
# Type: biochemical
# Conditions: 33P-ATP, substrate pAGLT, 3 hrs at room temperature, read-out: IC50 (enzyme)
# Source text: Measurement of Met Kinase Activity
# According to the manufacturer's data (Met, active, upstate, catalogue No. 14-526), Met kinase is expressed for the purposes of protein production in insect cells (Sf21; S. frugiperda) and subsequent affinity-chromatographic purification as “N-terminal 6His-tagged” recombinant human protein in a baculovirus expression vector.
# Flashplate Method (Met Kinase)
# The test plates used are 96-well Flashplate® microtitre plates from Perkin Elmer (Cat. No. SMP200). The components of the kinase reaction described below are pipetted into the assay plate. The Met kinase and the substrate poly Ala-Glu-Lys-Tyr, (pAGLT, 6:2:5:1), are incubated for 3 hrs at room temperature with radioactively labelled ^33P-ATP in the presence and absence of test substances in a total volume of 100 μl. The reaction is terminated using 150 μl of a 60 mM EDTA solution. After incubation for a further 30 min at room temperature, the supernatants are filtered off with suction, and the wells are washed three times with 200 μl of 0.9% NaCl solution each time. The measurement of the bound radioactivity is carried out by means of a scintillation measuring instrument (Topcount NXT, Perkin-Elmer).
# The full value used is the inhibitor-free kinase reaction. This should be approximately in the range 6000-9000 cpm. The pharmacological zero value used is staurosporin in a final concentration of 0.1 mM. The inhibitory values (IC50) are determined using the RS1_MTS program.
# Kinase Reaction Conditions Per Well:
# • 30 μl of assay buffer • 10 μl of substance to be tested in assay buffer with 10% of DMSO • 10 μl of ATP (final concentration 1 μM cold, 0.35 μCi of ^33P-ATP) • 50 μl of Met kinase/substrate mixture in assay buffer; • (10 ng of enzyme/well, 50 ng of pAGLT/well)
# Assay Buffer: • 50 mM HEPES • 3 mM magnesium chloride • 3 μM sodium orthovanadate • 3 mM manganese(II) chloride • 1 mM dithiothreitol (DTT) • pH=7.5 (to be set using sodium hydroxide)
# Stop Solution: • 60 mM Titriplex III (EDTA)
# ^33P-ATP: Perkin-Elmer; • Met kinase: Upstate, Cat. No. 14-526, Stock 1 μg/10 μl; spec. activity 954 U/mg; • Poly-Ala-Glu-Lys-Tyr, 6:2:5:1: Sigma Cat. No. P1152
# T1 sequence (P08581 974-1390 limits assumed): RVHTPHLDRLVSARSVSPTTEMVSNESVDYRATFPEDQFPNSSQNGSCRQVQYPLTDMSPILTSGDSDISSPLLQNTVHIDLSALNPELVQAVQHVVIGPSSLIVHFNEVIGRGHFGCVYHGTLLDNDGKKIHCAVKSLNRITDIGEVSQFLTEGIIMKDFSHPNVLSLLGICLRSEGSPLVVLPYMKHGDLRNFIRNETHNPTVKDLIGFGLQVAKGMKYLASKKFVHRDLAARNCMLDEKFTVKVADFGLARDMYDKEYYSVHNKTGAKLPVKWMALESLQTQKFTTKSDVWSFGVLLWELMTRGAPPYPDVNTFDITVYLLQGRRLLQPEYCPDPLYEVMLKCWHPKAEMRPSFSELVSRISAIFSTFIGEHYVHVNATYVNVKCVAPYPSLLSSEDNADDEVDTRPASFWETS
row,SMILES,IC50 [nM]
1,CN(C)CCCOC(=O)Nc1cccc(CN2N=C(c3ccccc3F)CSC2=O)c1 [Compound A12],10 to 1000
2,CN(C)CCCOC(=O)Nc1cccc(CN2N=C(c3ccc(Cl)cc3)CSC2=O)c1 [Compound A6],10 to 1000
3,COc1ccccc1C1=NN(Cc2cccc(NC(=O)OCCCN(C)C)c2)C(=O)SC1 [Compound A17],10 to 1000
4,CN(C)CCCOC(=O)Nc1cccc(CN2N=C(c3cccc(F)c3)CSC2=O)c1 [Compound A11],10 to 1000
5,CCOC(=O)Nc1cccc(CN2N=C(c3ccc(Cl)cc3)CSC2=O)c1 [Compound A7],10 to 1000

# Further lines, results first:
row,IC50 [nM],SMILES
1,10 to 1000,CCNCCCOC(=O)Nc1cccc(CN2N=C(c3ccc(C#N)cc3)CSC2=O)c1 [Compound A33]
2,10 to 1000,"CNCC(=O)Nc1cccc(CN2N=C(c3cc(Cl)ccc3O)CSC2=O)c1 [Compound B1, N-{3-[5-(5-chloro-2-hydroxyphenyl)-2-oxo-6H-1,3,4-thiadiazin-3-ylmethyl]phenyl}-2-methylaminoacetamide]"
3,10 to 1000,CC(c1cccc(NC(=O)OCCCN2CCOCC2)c1)N1N=C(c2ccc(F)c(F)c2)CSC1=O (stereo not shown) [Compound A29]
4,10 to 1000,CN(C)CCCOC(=O)Nc1cccc(CN2N=C(c3ccc(C#N)cc3)CSC2=O)c1 [Compound A20]
5,10 to 1000,O=C(Nc1cccc(CN2N=C(c3cc(Cl)ccc3O)CSC2=O)c1)c1cccnc1 [Compound B4]
6,10 to 1000,CC(c1cccc(NC(=O)OCCCN(C)C)c1)N1N=C(c2ccc(F)c(F)c2)CSC1=O (stereo not shown) [Compound A31]
7,10 to 1000,CC(c1cccc(NC(=O)OCCCN2CCN(C)CC2)c1)N1N=C(c2ccc(F)c(F)c2)CSC1=O (stereo not shown) [Compound A30]
8,10 to 1000,O=C(Nc1cccc(CN2N=C(c3ccccc3O)CSC2=O)c1)c1cccnc1 [Compound B6]
